Experimental data from the supplement of paper PMC10307832.

Assays:
[1] = compound: CN1C=C(C2=CC=CC=C21)/C=C\3/C4=C(C=CC=N4)NC3=O; experiment: relative viability (nuclei count vs DMSO), 5 days (fraction); higher = more cells survive
Method in brief: (§1)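 A plate was accepted only when its control CV was below 25% and the cells had doubled at least once. Viability is defined from nuclear counts as treated wells divided by vehicle wells, with the median taken across plates. That median covers lung cancer cell lines grown in 1536-well plates, dosed by pinning at five √10-spaced library-drug concentrations, and counted in MetaXpress from 4× Hoechst images after 5 days.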

[2] = compound: CC(=O)Nc1cccc(-n2c(=O)n(C3CC3)c(=O)c3c(Nc4ccc(I)cc4F)n(C)c(=O)c(C)c32)c1 [Trametinib]; experiment: as above
Method in brief: as §1

NCI-H2023
relative viability ([1]; 0.02 µM): 1.01
relative viability ([1]; 0.06325 µM): 0.962
relative viability ([1]; 0.2 µM): 0.768
relative viability ([1]; 0.6325 µM): 0.945
relative viability ([1]; 2 µM): 0.898
relative viability ([2]; 0.0025 µM): 0.964
relative viability ([2]; 0.007906 µM): 0.765
relative viability ([2]; 0.02 µM, anchor plate): 0.611
relative viability ([2]; 0.025 µM): 0.655
relative viability ([2]; 0.07906 µM): 0.632
relative viability ([2]; 0.25 µM): 0.334

NCI-H2085
relative viability ([1]; 0.02 µM): 1.01
relative viability ([1]; 0.06325 µM): 0.943
relative viability ([1]; 0.2 µM): 0.942
relative viability ([1]; 0.6325 µM): 1.03
relative viability ([1]; 2 µM): 0.993
relative viability ([2]; 0.0025 µM): 0.913
relative viability ([2]; 0.007906 µM): 0.823
relative viability ([2]; 0.02 µM, anchor plate): 0.504
relative viability ([2]; 0.025 µM): 0.754
relative viability ([2]; 0.07906 µM): 0.783
relative viability ([2]; 0.25 µM): 0.729

NCI-H2087
relative viability ([1]; 0.02 µM): 1
relative viability ([1]; 0.06325 µM): 0.87
relative viability ([1]; 0.2 µM): 1.05
relative viability ([1]; 0.6325 µM): 0.986
relative viability ([1]; 2 µM): 1.06
relative viability ([2]; 0.0025 µM): 0.867
relative viability ([2]; 0.007906 µM): 0.463
relative viability ([2]; 0.02 µM, anchor plate): 0.217
relative viability ([2]; 0.025 µM): 0.302
relative viability ([2]; 0.07906 µM): 0.179
relative viability ([2]; 0.25 µM): 0.139

NCI-H2126
relative viability ([1]; 0.02 µM): 0.965
relative viability ([1]; 0.06325 µM): 0.993
relative viability ([1]; 0.2 µM): 0.885
relative viability ([1]; 0.6325 µM): 1.01
relative viability ([1]; 2 µM): 0.955
relative viability ([2]; 0.0025 µM): 0.9
relative viability ([2]; 0.007906 µM): 0.836
relative viability ([2]; 0.02 µM, anchor plate): 0.572
relative viability ([2]; 0.025 µM): 0.585
relative viability ([2]; 0.07906 µM): 0.738
relative viability ([2]; 0.25 µM): 0.669

NCI-H2170
relative viability ([1]; 0.02 µM): 0.854
relative viability ([1]; 0.06325 µM): 0.983
relative viability ([1]; 0.2 µM): 0.833
relative viability ([1]; 0.6325 µM): 0.839
relative viability ([1]; 2 µM): 1.07
relative viability ([2]; 0.0025 µM): 0.96
relative viability ([2]; 0.007906 µM): 0.955
relative viability ([2]; 0.02 µM, anchor plate): 0.94
relative viability ([2]; 0.07906 µM): 0.929
relative viability ([2]; 0.25 µM): 0.923

NCI-H2228
relative viability ([1]; 0.02 µM): 1.05
relative viability ([1]; 0.06325 µM): 0.856
relative viability ([1]; 0.6325 µM): 0.864
relative viability ([1]; 2 µM): 1.14
relative viability ([2]; 0.0025 µM): 0.771
relative viability ([2]; 0.007906 µM): 0.885
relative viability ([2]; 0.02 µM, anchor plate): 0.555
relative viability ([2]; 0.025 µM): 0.811
relative viability ([2]; 0.07906 µM): 0.61
relative viability ([2]; 0.25 µM): 0.363

NCI-H2342
relative viability ([1]; 0.02 µM): 0.938
relative viability ([1]; 0.06325 µM): 0.963
relative viability ([1]; 0.2 µM): 0.955
relative viability ([1]; 0.6325 µM): 0.878
relative viability ([1]; 2 µM): 0.906
relative viability ([2]; 0.0025 µM): 0.958
relative viability ([2]; 0.007906 µM): 0.915
relative viability ([2]; 0.02 µM, anchor plate): 0.847
relative viability ([2]; 0.025 µM): 0.554
relative viability ([2]; 0.07906 µM): 0.749
relative viability ([2]; 0.25 µM): 0.855

NCI-H2347
relative viability ([1]; 0.02 µM): 1.05
relative viability ([1]; 0.06325 µM): 1.01
relative viability ([1]; 0.2 µM): 0.94
relative viability ([1]; 0.6325 µM): 0.932
relative viability ([1]; 2 µM): 1.02
relative viability ([2]; 0.0025 µM): 0.988
relative viability ([2]; 0.007906 µM): 0.535
relative viability ([2]; 0.02 µM, anchor plate): 0.285
relative viability ([2]; 0.025 µM): 0.377
relative viability ([2]; 0.07906 µM): 0.356
relative viability ([2]; 0.25 µM): 0.371

NCI-H2405
relative viability ([1]; 0.02 µM): 0.987
relative viability ([1]; 0.06325 µM): 0.959
relative viability ([1]; 0.2 µM): 0.715
relative viability ([1]; 0.6325 µM): 0.966
relative viability ([1]; 2 µM): 0.961
relative viability ([2]; 0.0025 µM): 0.944
relative viability ([2]; 0.007906 µM): 0.946
relative viability ([2]; 0.02 µM, anchor plate): 0.665
relative viability ([2]; 0.025 µM): 0.553
relative viability ([2]; 0.07906 µM): 0.535
relative viability ([2]; 0.25 µM): 0.556

NCI-H3122
relative viability ([1]; 0.02 µM): 0.878
relative viability ([1]; 0.06325 µM): 0.938
relative viability ([1]; 0.2 µM): 0.897
relative viability ([1]; 0.6325 µM): 1.05
relative viability ([1]; 2 µM): 0.994
relative viability ([2]; 0.0025 µM): 0.909
relative viability ([2]; 0.007906 µM): 0.701
relative viability ([2]; 0.02 µM, anchor plate): 0.231
relative viability ([2]; 0.025 µM): 0.465
relative viability ([2]; 0.07906 µM): 0.361
relative viability ([2]; 0.25 µM): 0.281

PC-3 [JPC-3]
relative viability ([1]; 0.02 µM): 1.03
relative viability ([1]; 0.06325 µM): 1.02
relative viability ([1]; 0.2 µM): 0.859
relative viability ([1]; 0.6325 µM): 0.975
relative viability ([1]; 2 µM): 0.989
relative viability ([2]; 0.0025 µM): 1.03
relative viability ([2]; 0.007906 µM): 0.916
relative viability ([2]; 0.02 µM, anchor plate): 0.7
relative viability ([2]; 0.025 µM): 0.843
relative viability ([2]; 0.07906 µM): 0.764
relative viability ([2]; 0.25 µM): 0.637

PC-14
relative viability ([1]; 0.02 µM): 0.944
relative viability ([1]; 0.06325 µM): 0.943
relative viability ([1]; 0.2 µM): 0.926
relative viability ([1]; 0.6325 µM): 1.01
relative viability ([1]; 2 µM): 1.05
relative viability ([2]; 0.0025 µM): 1.03
relative viability ([2]; 0.007906 µM): 0.953
relative viability ([2]; 0.02 µM, anchor plate): 0.756
relative viability ([2]; 0.025 µM): 0.758
relative viability ([2]; 0.07906 µM): 0.626
relative viability ([2]; 0.25 µM): 0.226

RERF-LC-KJ
relative viability ([1]; 0.02 µM): 1
relative viability ([1]; 0.06325 µM): 1.01
relative viability ([1]; 0.2 µM): 1.02
relative viability ([1]; 0.6325 µM): 0.914
relative viability ([1]; 2 µM): 0.984
relative viability ([2]; 0.0025 µM): 0.969
relative viability ([2]; 0.007906 µM): 0.926
relative viability ([2]; 0.02 µM, anchor plate): 0.873
relative viability ([2]; 0.025 µM): 0.885
relative viability ([2]; 0.07906 µM): 0.848
relative viability ([2]; 0.25 µM): 0.757

SK-LU-1
relative viability ([1]; 0.02 µM): 0.793
relative viability ([1]; 0.06325 µM): 0.928
relative viability ([1]; 0.2 µM): 0.984
relative viability ([1]; 0.6325 µM): 0.945
relative viability ([1]; 2 µM): 1.08
relative viability ([2]; 0.0025 µM): 1.03
relative viability ([2]; 0.007906 µM): 0.88
relative viability ([2]; 0.02 µM, anchor plate): 0.475
relative viability ([2]; 0.025 µM): 0.641
relative viability ([2]; 0.07906 µM): 0.548
relative viability ([2]; 0.25 µM): 0.412

SK-MES-1
relative viability ([1]; 0.02 µM): 0.967
relative viability ([1]; 0.06325 µM): 0.959
relative viability ([1]; 0.2 µM): 0.951
relative viability ([1]; 0.6325 µM): 0.929
relative viability ([1]; 2 µM): 0.967
relative viability ([2]; 0.0025 µM): 0.948
relative viability ([2]; 0.007906 µM): 0.803
relative viability ([2]; 0.02 µM, anchor plate): 0.574
relative viability ([2]; 0.025 µM): 0.621
relative viability ([2]; 0.07906 µM): 0.485
relative viability ([2]; 0.25 µM): 0.359

SW 900
relative viability ([1]; 0.02 µM): 0.969
relative viability ([1]; 0.06325 µM): 0.79
relative viability ([1]; 0.6325 µM): 1.02
relative viability ([1]; 2 µM): 0.987
relative viability ([2]; 0.0025 µM): 0.713
relative viability ([2]; 0.007906 µM): 0.811
relative viability ([2]; 0.02 µM, anchor plate): 0.808
relative viability ([2]; 0.025 µM): 0.751
relative viability ([2]; 0.07906 µM): 0.771
relative viability ([2]; 0.25 µM): 0.19

SW 1573
relative viability ([1]; 0.02 µM): 1.07
relative viability ([1]; 0.06325 µM): 0.968
relative viability ([1]; 0.2 µM): 0.994
relative viability ([1]; 0.6325 µM): 1.05
relative viability ([1]; 2 µM): 0.971
relative viability ([2]; 0.0025 µM): 0.875
relative viability ([2]; 0.007906 µM): 0.716
relative viability ([2]; 0.02 µM, anchor plate): 0.615
relative viability ([2]; 0.025 µM): 0.631
relative viability ([2]; 0.07906 µM): 0.583
relative viability ([2]; 0.25 µM): 0.485
